Assays:
[1] = system: KMS12-BM (NIK WT) multiple myeloma cells; assay: Antiproliferative activity on KMS12-BM multiple myeloma cells (CellTiter-Glo, 96 hr), Biological Assay C; type: cell-based, human; settings: Homo sapiens, KMS-12-BM, 96 h, averaged values, read-out: KMS-12 Proliferation inhibition (IC50 (nM))
Method: (§1) Determination of Antiproliferative Activity on JJN-3 (NIK Translocated) and KMS12-BM (NIK WT) Multiple Myeloma Cells
(§2) All compounds tested were dissolved in DMSO and further dilutions were made in culture medium. Final DMSO concentration was 0.3% (v/v) in cell proliferation assays. Viability was assessed using CellTiter-Glo cell viability assay kit (Promega). The human JJN-3 and KMS12-BM cells (DSMZ) were cultured in RPMI 1640 medium supplemented with 2 mM L-glutamine, and 10% fetal calf serum (PAA). Cells were routinely kept as suspension cells at 37° C. in a humidified 5% CO2 atmosphere. Cells were passaged at a seeding density of 0.2×10^6/ml twice a week. Cells were seeded in black tissue culture treated 96-well plates (Perkin Elmer). Densities used for plating ranged from 15000 (JJN3) to 20000 (KMS12BM) cells per well in a total volume of 135 μl medium. Drugs and/or solvents were added (15 μl) to a final volume of 150 μl. Following 96 hr of treatment, plates were removed from the incubator and allowed to equilibrate to room temperature for approx 10 min. 75 μl CellTiter-Glo reagent was added to each well that was then covered (Perkin Elmer Topseal) and shaken on plate shaker for 10 min. Luminescence was measured on a HTS Topcount (Perkin Elmer).
(§3) Within an experiment, the results for each treatment were the mean of 2 replicate wells. For initial screening purposes, compounds were tested using a 9 point dilution curve (serial 1:3 dilutions). For each experiment, controls (containing no drug) and a blank incubation (containing cells read at the time of compound addition) were run in parallel. The blank value was subtracted from all control and sample values. For each sample, the mean value for cell growth (in relative light units) was expressed as a percentage of the mean value for cell growth of the control.

[2] = target: recombinant human NF-kappaB-inducing kinase (NIK/MAP3K14) (Homo sapiens, UniProt Q99558); assay: Inhibition of auto-phosphorylation of recombinant human NIK/MAP3K14 activity (AlphaScreen), Biological Assay A; type: biochemical; settings: averaged values over all measurements on all batches
recombinant human NF-kappaB-inducing kinase (NIK/MAP3K14), sequence (Q99558 whole entry): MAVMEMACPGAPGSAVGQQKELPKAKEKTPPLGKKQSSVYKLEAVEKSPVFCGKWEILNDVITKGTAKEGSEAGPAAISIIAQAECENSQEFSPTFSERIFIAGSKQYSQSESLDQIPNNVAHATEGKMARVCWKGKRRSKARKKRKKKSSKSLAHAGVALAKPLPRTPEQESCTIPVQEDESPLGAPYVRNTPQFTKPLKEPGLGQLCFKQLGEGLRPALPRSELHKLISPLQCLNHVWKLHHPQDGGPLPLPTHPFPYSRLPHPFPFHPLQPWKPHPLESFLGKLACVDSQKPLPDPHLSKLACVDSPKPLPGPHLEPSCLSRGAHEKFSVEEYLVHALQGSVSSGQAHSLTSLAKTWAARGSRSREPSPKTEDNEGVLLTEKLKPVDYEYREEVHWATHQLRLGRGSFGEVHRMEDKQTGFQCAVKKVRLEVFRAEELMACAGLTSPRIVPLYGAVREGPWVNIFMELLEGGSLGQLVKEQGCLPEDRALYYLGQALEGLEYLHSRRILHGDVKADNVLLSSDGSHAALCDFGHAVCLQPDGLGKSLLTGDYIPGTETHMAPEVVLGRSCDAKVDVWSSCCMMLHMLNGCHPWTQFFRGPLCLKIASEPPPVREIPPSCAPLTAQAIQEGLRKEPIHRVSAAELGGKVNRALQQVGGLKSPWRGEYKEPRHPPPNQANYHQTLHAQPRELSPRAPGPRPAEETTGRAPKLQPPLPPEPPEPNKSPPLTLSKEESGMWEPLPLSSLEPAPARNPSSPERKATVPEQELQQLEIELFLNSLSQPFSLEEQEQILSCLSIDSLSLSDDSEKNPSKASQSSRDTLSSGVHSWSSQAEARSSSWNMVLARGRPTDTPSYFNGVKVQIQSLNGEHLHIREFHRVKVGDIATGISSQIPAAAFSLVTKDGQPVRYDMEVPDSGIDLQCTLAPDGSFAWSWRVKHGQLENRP
Method: Inhibition of Auto-Phosphorylation of Recombinant Human NF-kappaB-Inducing Kinase (NIK/MAP3K14) Activity (AlphaScreen®)
NIK/MAP3K14 auto-phosphorylation activity was measured using the AlphaScreen® (αscreen) format (Perkin Elmer). All compounds tested were dissolved in dimethyl sulfoxide (DMSO) and further dilutions were made in assay buffer. Final DMSO concentration was 1% (v/v) in assays. Assay buffer was 50 mM Tris pH 7.5 containing 1 mM EGTA (ethylene glycol tetraacetic acid), 1 mM DTT (dithiothreitol), 0.1 mM Na3VO4, 5 mM MgCl2, 0.01% Tween® 20. Assays were carried out in 384 well Alphaplates (Perkin Elmer). Incubations consisted of compound, 25 microM Adenosine-5′-triphosphate (ATP), and 0.2 nM NIK/MAP3K14. Incubations were initiated by addition of GST-tagged NIK/MAP3K14 enzyme, carried out for 1 h at 25° C. and terminated by addition of stop buffer containing anti-phospho-IKK Ser176/180 antibody. Protein A Acceptor and Glutathione-Donor beads were added before reading using an EnVision® Multilabel Plate Reader (Perkin Elmer). Signal obtained in the wells containing blank samples was subtracted from all other wells and IC50's were determined by fitting a sigmoidal curve to % inhibition of control versus Log10 compound concentration.

[3] = system: JJN-3 (NIK translocated) multiple myeloma cells; assay: Antiproliferative activity on JJN-3 multiple myeloma cells (CellTiter-Glo, 96 hr), Biological Assay C; type: cell-based, human; settings: Homo sapiens, JJN-3, 96 h, JJN-3 (NIK translocated) cells, averaged values, read-out: JJN-3 Proliferation inhibition (IC50 (nM))
Method: as §1, §2, §3

| Compound | IC50 [1] | IC50 [2] | melting point | IC50 [3] |
| --- | --- | --- | --- | --- |
| CC1(C)CNc2c(C#N)cc(-c3ccnc(Nc4cc(Cl)ccc4OC4CCN(C5CC5)CC4)n3)cc21 [Compound 99] | 8320 nM | 219 nM | 120 °C | 380 nM |
| COc1cc(C(=O)N2CC3(CC(O)C3)C2)c(Cl)cc1Nc1nccc(-c2cc(C#N)c3c(c2)C(C)(C)CN3)n1 [Compound 123] | 1050 nM | 8.5 nM | 287 °C | 14 nM |
| CC1(CO)CNc2c(C#N)cc(-c3ccnc(Nc4ccc(OC5CCOCC5)c(C(F)(F)F)c4)n3)cc21 (stereo not drawn) [Compound 37] | 4170 nM | 37.2 nM | 221 °C | 17 nM |
| Cc1cc(Br)c(Cl)cc1Nc1nccc(-c2cc(C#N)c3c(c2)C(C)(CO)CN3)n1 (stereo not drawn) [Compound 51] | > 10000 nM | 49 nM | 200 °C | 363 nM |
| CN1CCCC(Oc2ccc(Cl)cc2Nc2nccc(-c3cc(C#N)c4c(c3)C(C)(CO)CN4)n2)C1 (mixture of isomers) [Compound 39] | 2340 nM | 7.4 nM | 173 °C | 87 nM |
| CC(C)c1ccc(COc2cccc(Nc3nccc(-c4cc(C#N)c5c(c4)C(C)(CO)CN5)n3)c2)cc1 (stereo not drawn) [Compound 42] | > 10000 nM | 309 nM | 183 °C | 4270 nM |
| CNCCOc1ccc(Cl)cc1Nc1nccc(-c2cc(C#N)c3c(c2)C(C)(CO)CN3)n1 (stereo not drawn) [Compound 44] | > 10000 nM | 8.3 nM | 168 °C | 219 nM |
| CC1(CO)CNc2c(C#N)cc(-c3ccnc(Nc4cc(C(F)(F)F)ccc4OCCO)n3)cc21 (stereo not drawn) [Compound 38] | > 10000 nM | 30.9 nM | 190 °C | 182 nM |
| CC1(C)CNc2c(C#N)cc(-c3ccnc(Nc4cc(Cl)ccc4OC4CCOCC4)n3)cc21 [Compound 103] | > 10000 nM | 105 nM | 126 °C | 3720 nM |
| COCCOc1cc(P(C)(C)=O)ccc1Nc1nccc(-c2cc(C#N)c3c(c2)[C@@](C)(CO)CN3)n1 [Compound 67] | > 10000 nM | 4.3 nM | 188 °C | ~1700 nM |
| COCCOc1ccc(Cl)cc1Nc1nccc(-c2cc(C#N)c3c(c2)C(C)(C)CN3)n1 [Compound 100] | > 10000 nM | 91.2 nM | 171 °C | 1410 nM |
| Cc1c(Nc2nccc(-c3cc(C#N)c4c(c3)C(C)(CO)CN4)n2)cc(Cl)cc1C(=O)N1CCN(C)CC1 (stereo not drawn) [Compound 58] | 6760 nM | 2.6 nM | 183 °C | 85 nM |
| CC1(CO)CNc2c(C#N)cc(-c3ccnc(Nc4cc(Cl)ccc4C(F)(F)F)n3)cc21 (stereo not drawn) [Compound 49] | > 10000 nM | 24.6 nM | 172 °C | 1620 nM |
| CC(C)N1CCN(C(=O)Cc2ccc(Cl)cc2Nc2nccc(-c3cc(C#N)c4c(c3)C(C)(CO)CN4)n2)CC1 (stereo not drawn) [Compound 55] | > 10000 nM | 15.5 nM | 135 °C | 282 nM |
| C[C@]1(CO)CNc2c(C#N)cc(-c3ccnc(Nc4cc(C#N)ccc4C4CC4)n3)cc21 [Compound 71] | > 10000 nM | 7.2 nM | 210 °C | 148 nM |
| Cc1ccc(Cl)cc1Nc1nccc(-c2cc(C#N)c3c(c2)C(C)(CO)CN3)n1 (stereo not drawn) [Compound 27] | > 10000 nM | 9.2 nM | 289 °C | 106 nM |
| Cc1cc(C2CCOCC2)c(C#N)cc1Nc1nccc(-c2cc(C#N)c3c(c2)[C@@](C)(CO)CN3)n1 [Compound 75] | ~3310 nM | 3.6 nM | 228 °C | 105 nM |

Second part, the compound after the results:

| IC50 [1] | IC50 [2] | melting point | IC50 [3] | Compound |
| --- | --- | --- | --- | --- |
| > 10000 nM | 41.7 nM | 176 °C | 1020 nM | CC1(C)CNc2c(C#N)cc(-c3ccnc(Nc4cc(Cl)ccc4OCCO)n3)cc21 [Compound 107] |
| 110 nM | 1.7 nM | > 260 °C | 13 nM | CCN1CCC(c2ccc(Nc3nccc(-c4cc(C#N)c5c(c4)C(C)(CO)CN5)n3)cc2Cl)CC1 (stereo not drawn) [Compound 41] |
| > 10000 nM | 17.4 nM | 210 °C | 166 nM | CC1(CO)CNc2c(C#N)cc(-c3ccnc(Nc4cc(Cl)ccc4Cl)n3)cc21 (stereo not drawn) [Compound 29] |
| 102 nM | 3 nM | 190 °C | 9 nM | CC1CN(Cc2ccc(Nc3nccc(-c4cc(C#N)c5c(c4)C(C)(CO)CN5)n3)cc2C(F)(F)F)CC(C)N1C (stereo not drawn) [Compound 50] |
| > 10000 nM | 403 nM | 112 °C | 3550 nM | CC(C)Oc1ccc(Cl)cc1Nc1nccc(-c2cc(C#N)c3c(c2)C(C)(C)CN3)n1 [Compound 102] |
| 7080 nM | 37.2 nM | 192 °C | 129 nM | CC1(CO)CNc2c(C#N)cc(-c3ccnc(Nc4cc(Cl)ccc4OC4CCN(C5CC5)CC4)n3)cc21 (stereo not drawn) [Compound 35] |
| > 10000 nM | 4.9 nM | 157 °C | 1020 nM | COCCOc1cc(F)ccc1Nc1nccc(-c2cc(C#N)c3c(c2)[C@@](C)(CO)CN3)n1 [Compound 69] |
| > 10000 nM | 12 nM | 176 °C | 2140 nM | COc1cc(Nc2nccc(-c3cc(C#N)c4c(c3)C(C)(C)CN4)n2)c(F)c(OC)c1 [Compound 104] |
| 6460 nM | 75.9 nM | 263 °C | 51 nM | CC1(CO)CNc2c(C#N)cc(-c3ccnc(Nc4ccc(C5CCOCC5)c(C(F)(F)F)c4)n3)cc21 (stereo not drawn) [Compound 36] |
| > 10000 nM | 126 nM | 170 °C | 1740 nM | CN(C)C(=O)c1ccc(Cl)cc1Nc1nccc(-c2cc(C#N)c3c(c2)C(C)(CO)CN3)n1 (stereo not drawn) [Compound 56] |
| ~5010 nM | 1.7 nM | 262 °C | 7 nM | CC(=O)Nc1cc(Cl)cc(Nc2nccc(-c3cc(C#N)c4c(c3)[C@@](C)(CO)CN4)n2)c1C [Compound 63] |
| ~7240 nM | 5.3 nM | 238 °C | 71 nM | Cc1c(Nc2nccc(-c3cc(C#N)c4c(c3)[C@@](C)(CO)CN4)n2)cccc1C(=O)N1CCN(C2CC2)CC1 [Compound 206] |
| > 10000 nM | 8.7 nM | 236 °C | 155 nM | CC1(CO)CNc2c(C#N)cc(-c3ccnc(Nc4cc(Cl)ccc4OCCO)n3)cc21 (stereo not drawn) [Compound 40] |
| > 10000 nM | 11.2 nM | 239 °C | 85 nM | COc1ccc(Cl)cc1Nc1nccc(-c2cc(C#N)c3c(c2)C(C)(CO)CN3)n1 (stereo not drawn) [Compound 33] |
| > 10000 nM | 3.7 nM | 195 °C | 255 nM | Cc1ccc(C#N)cc1Nc1nccc(-c2cc(C#N)c3c(c2)C(C)(CO)CN3)n1 (stereo not drawn) [Compound 26] |
| > 10000 nM | 15.1 nM | > 250 °C | 776 nM | COc1ccc(Cl)cc1Nc1ncc(F)c(-c2cc(C#N)c3c(c2)C(C)(CO)CN3)n1 (stereo not drawn) [Compound 47] |

Reference: patent US11180487B2, “Substituted cyanoindoline derivatives as NIK inhibitors” (Janssen Pharmaceutica NV, priority 2016, dated 2021)
